Results reported in ChEMBL document CHEMBL2380215, “Development of cyclic peptomer inhibitors targeting the polo-box domain of polo-like kinase 1” (Bioorg Med Chem, 2013).
Active and inactive are the calls of the source. No cut-off for these calls is given here.

What was measured:
[1] = target: Serine/threonine-protein kinase PLK1 (Homo sapiens) (UniProt P53350); test: Inhibition of HA-EGFP tagged Plk1 polo-box domain (unknown origin) expressed in 293A cells assessed as inhibition of biotin-p-T78 binding up to 150 uM after 1 hr by ELISA; assay type: cell-based
[2] = target: Serine/threonine-protein kinase PLK3 (Homo sapiens) (UniProt Q9H4B4); test: Inhibition of Plk3 polo-box domain (unknown origin) assessed as inhibition of 5-carboxyfluorescein-Ahx-GPLATS-pT-PKNG binding after 10 mins by fluorescence polarization assay
[3] = target: Serine/threonine-protein kinase PLK2 (Homo sapiens) (UniProt Q9NYY3); test: Inhibition of Plk2 polo-box domain (unknown origin) assessed as inhibition of 5-carboxyfluorescein-Ahx-GPMQTS-pT-PKNG binding after 10 mins by fluorescence polarization assay
Chain of Serine/threonine-protein kinase PLK2 (Homo sapiens) (Q9NYY3 whole entry, looked up, the tested form may be a part): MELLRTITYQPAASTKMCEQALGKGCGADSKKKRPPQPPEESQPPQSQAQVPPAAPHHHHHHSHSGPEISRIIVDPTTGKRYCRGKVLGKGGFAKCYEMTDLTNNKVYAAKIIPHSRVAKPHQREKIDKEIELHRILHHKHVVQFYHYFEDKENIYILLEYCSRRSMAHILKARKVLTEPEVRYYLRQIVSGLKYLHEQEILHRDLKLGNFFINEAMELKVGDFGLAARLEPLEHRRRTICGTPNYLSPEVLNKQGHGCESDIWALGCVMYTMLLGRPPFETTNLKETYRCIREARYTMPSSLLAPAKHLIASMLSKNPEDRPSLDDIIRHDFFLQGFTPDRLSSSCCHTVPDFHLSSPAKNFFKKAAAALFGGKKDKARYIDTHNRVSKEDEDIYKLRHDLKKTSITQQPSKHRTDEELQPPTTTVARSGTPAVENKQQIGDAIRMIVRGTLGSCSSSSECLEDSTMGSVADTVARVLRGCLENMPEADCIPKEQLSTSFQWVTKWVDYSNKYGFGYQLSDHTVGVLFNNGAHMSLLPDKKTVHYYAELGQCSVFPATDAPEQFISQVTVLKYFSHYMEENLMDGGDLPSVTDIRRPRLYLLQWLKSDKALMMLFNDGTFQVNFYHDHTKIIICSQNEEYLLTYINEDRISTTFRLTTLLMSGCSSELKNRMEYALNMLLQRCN

Chain of Serine/threonine-protein kinase PLK1 (Homo sapiens) (P53350 whole entry, the tested form may be a part): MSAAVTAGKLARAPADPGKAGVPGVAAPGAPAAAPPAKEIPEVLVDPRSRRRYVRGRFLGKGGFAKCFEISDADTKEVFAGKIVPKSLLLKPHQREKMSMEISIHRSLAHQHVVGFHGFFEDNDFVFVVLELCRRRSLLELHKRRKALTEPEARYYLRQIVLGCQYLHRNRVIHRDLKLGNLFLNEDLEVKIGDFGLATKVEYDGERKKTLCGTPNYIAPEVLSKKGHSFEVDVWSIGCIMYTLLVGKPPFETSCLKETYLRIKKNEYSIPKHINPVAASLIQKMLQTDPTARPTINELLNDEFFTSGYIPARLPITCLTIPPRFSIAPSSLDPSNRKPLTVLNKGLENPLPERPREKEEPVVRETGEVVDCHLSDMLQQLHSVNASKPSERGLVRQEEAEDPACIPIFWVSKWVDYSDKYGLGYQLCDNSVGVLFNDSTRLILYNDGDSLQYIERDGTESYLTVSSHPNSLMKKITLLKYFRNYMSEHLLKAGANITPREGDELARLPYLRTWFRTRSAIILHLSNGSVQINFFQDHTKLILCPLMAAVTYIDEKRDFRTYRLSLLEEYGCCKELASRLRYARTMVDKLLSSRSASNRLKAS
Chain of Serine/threonine-protein kinase PLK3 (Homo sapiens) (Q9H4B4 whole entry, looked up, the tested form may be a part): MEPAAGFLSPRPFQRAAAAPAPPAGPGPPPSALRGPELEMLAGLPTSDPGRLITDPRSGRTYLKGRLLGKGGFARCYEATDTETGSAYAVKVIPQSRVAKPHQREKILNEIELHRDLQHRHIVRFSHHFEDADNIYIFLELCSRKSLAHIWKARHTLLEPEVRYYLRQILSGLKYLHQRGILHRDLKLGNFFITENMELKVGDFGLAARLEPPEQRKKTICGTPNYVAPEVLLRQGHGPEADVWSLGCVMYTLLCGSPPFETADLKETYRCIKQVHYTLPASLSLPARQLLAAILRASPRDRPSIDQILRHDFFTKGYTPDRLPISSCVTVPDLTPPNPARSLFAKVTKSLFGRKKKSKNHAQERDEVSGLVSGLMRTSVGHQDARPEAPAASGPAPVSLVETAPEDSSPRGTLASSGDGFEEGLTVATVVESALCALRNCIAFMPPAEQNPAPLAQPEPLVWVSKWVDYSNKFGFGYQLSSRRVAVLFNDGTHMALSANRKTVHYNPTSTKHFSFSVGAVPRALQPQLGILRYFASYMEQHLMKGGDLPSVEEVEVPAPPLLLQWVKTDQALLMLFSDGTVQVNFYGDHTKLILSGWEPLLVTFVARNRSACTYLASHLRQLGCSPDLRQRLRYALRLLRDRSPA

| inhibition [1] | inhibition [2] | inhibition [3] | Structure (SMILES) |
| --- | --- | --- | --- |
| Active | – | – | CC(=O)n1cc(CCNC(=O)CCN2CC(=O)N[C@@H](CC(C)C)C(=O)N[C@@H](Cc3c[nH]cn3)C(=O)N[C@@H](CO)C(=O)N[C@@H]([C@@H](C)OP(=O)(O)O)C(=O)N[C@@H](C(N)=O)CSCC2=O)c2ccccc21 |
| – | inactive | inactive | CC(=O)n1cc(CCNC(=O)CCCCCN2CC(=O)N[C@@H](CC(C)C)C(=O)N[C@@H](Cc3c[nH]cn3)C(=O)N[C@@H](CO)C(=O)N[C@@H]([C@@H](C)OP(=O)(O)O)C(=O)N[C@@H](C(N)=O)CSCC2=O)c2ccccc21 |
| – | inactive | inactive | CC(=O)n1cc(CCNC(=O)CCCCCN2CC(=O)N[C@@H](CC(C)C)C(=O)N[C@@H](Cc3cncn3CCCCCCCCc3ccccc3)C(=O)N[C@@H](CO)C(=O)N[C@@H]([C@@H](C)OP(=O)(O)O)C(=O)N[C@@H](C(N)=O)CSCC2=O)c2ccccc21 |
| Active | – | – | CC(=O)n1cc(CCNC(=O)CCCCN2CC(=O)N[C@@H](CC(C)C)C(=O)N[C@@H](Cc3c[nH]cn3)C(=O)N[C@@H](CO)C(=O)N[C@@H]([C@@H](C)OP(=O)(O)O)C(=O)N[C@@H](C(N)=O)CSCC2=O)c2ccccc21 |
